Data reported in patent US8481484B2, “Cyclic heptapeptide and use of the same” (National University Corporation Nagoya University, priority 2007, dated 2013).

What follows are compounds tested on Murine preadipocytes (3T3-L1) (assay: Fat accumulation in 3T3-L1 preadipocytes during induced differentiation (Triglyceride E-test)). Settings: 3T3-L1, differentiation-inducing medium with test compound, seven days; stated in words, numbers only in FIG. 7.
Type: cell-based
Method: Murine preadipocytes (3T3-L1) have such a property as to accumulate fat following differentiation. In the present test, while differentiation of 313-L1 preadipocytes was induced by insulin and the like, test compounds were simultaneously added. Then, an amount of fat in the cells was measured to evaluate that the test compounds exert inhibition of differentiation of the preadipocytes or an inhibitory effect on fat accumulation following differentiation. In this test, in a case where cells die due to the test compounds, there is concern that the test might unintentionally result in a low fat accumulation rate, which is seemingly a favorable result. […] Also, fat accumulation was observed under a microscope from time to time during the test.
Preadipocytes (3T3-L1) were cultured to confluence in the presence of 5% CO2 at 37° C. for two days in 150 μL of culture media (DMEM containing 10% fetal bovine serum (glucose concentration of […])) in two 96-well microplates. Then, with respect to both plates, the culture media were aspirated and replaced with 150 μL of differentiation-inducing media containing a certain concentration of test compounds (DMEM containing 10% fetal bovine serum (glucose concentration of […]) in which 1 μM dexamethasone, 10 μg/mL insulin, and 0.5 mM 3-isobutyl-1-methylxanthine were dissolved). Normally, methanol solution containing a 200-fold concentration of test compounds (1a, 1b, 1c, 1d, and 1e) was prepared, and 7.5 μL of the solution was added with respect to 1.5 mL of the differentiation-inducing media. At this time, a well that was not replaced with the differentiation-inducing medium and a well to which only methanol was added instead of a sample solution were prepared as a control. The plates were cultured in the presence of 5% CO2 at 37° C. for seven days. Thereafter, one plate was served for measurement of an amount of fat, and the other plate was served for measurement of a survival rate.
To each well of the plate for measurement of an amount of fat, 10 μL of 2% Triton X-100 was added, and the plate was left to stand for 30 minutes. Subsequently, the plate was sealed with a sealing tape (a product of Asahi Techno Glass Corporation) and sonicated for one minute in an ultrasonic cleaner. Subsequently, 20 μL of solution was collected from each well and added to a 96-well microplate in which 150 μL of Triglyceride E-test Wako (a product of Wako Pure Chemical Industries, Ltd.), a coloring reagent, had been added to each well, and then the plate was incubated at 37° C. for 30 minutes, after which absorbance (at 630 nm, control at 690 nm) was measured by a plate reader. A ratio of absorbance in a compound-added group to absorbance in a compound-free group was obtained as a percentage, which was provided as a fat accumulation rate. Fat accumulation rates with respect to a concentration in each sample were represented as a semilogarithmic graph. From this graph a compound concentration at which a fat accumulation rate was 50% was read off, which was provided as a 50% effective concentration (EC50). It can be interpreted that the smaller the EC50 value is, the stronger the inhibitory effect on differentiation of adipocytes or on fat accumulation in adipocytes is.
CC[C@H](C)[C@H]1NC(=O)[C@@H](C)NC(=O)[C@@H](C)N(C)C(=O)[C@H](C)N(C)C(=O)[C@H](CC(C)C)NC(=O)[C@H](CC(C)C)N(C)C(=O)[C@H](C)N(C)C1=O [1a] was tested, and the “EC50 (compound concentration at which the fat accumulation rate is 50%); inhibitory effect on differentiation of adipocytes or on fat accumulation” value was “excellently exerts an inhibitory effect on differentiation of adipocytes or on fat accumulation in adipocytes”.
In the case of CC[C@H](C)[C@H]1NC(=O)[C@@H](CC(C)C)NC(=O)[C@@H](C)N(C)C(=O)[C@H](C)N(C)C(=O)[C@H](CC(C)C)NC(=O)[C@H](CC(C)C)N(C)C(=O)[C@H](C)N(C)C1=O [1b], the “EC50 (compound concentration at which the fat accumulation rate is 50%); inhibitory effect on differentiation of adipocytes or on fat accumulation” value is reported as “excellently exerts an inhibitory effect on differentiation of adipocytes or on fat accumulation in adipocytes”.
For CC[C@H](C)[C@H]1NC(=O)[C@@H](COCc2ccccc2)NC(=O)[C@@H](C)N(C)C(=O)[C@H](C)N(C)C(=O)[C@H](CC(C)C)NC(=O)[C@H](CC(C)C)N(C)C(=O)[C@H](C)N(C)C1=O [1c], the “EC50 (compound concentration at which the fat accumulation rate is 50%); inhibitory effect on differentiation of adipocytes or on fat accumulation” value was “excellently exerts an inhibitory effect on differentiation of adipocytes or on fat accumulation in adipocytes”.
In the case of CC[C@H](C)[C@H]1NC(=O)[C@@H]([C@H](C)O)NC(=O)[C@@H](C)N(C)C(=O)[C@H](C)N(C)C(=O)[C@H](CC(C)C)NC(=O)[C@H](CC(C)C)N(C)C(=O)[C@H](C)N(C)C1=O [1d], the “EC50 (compound concentration at which the fat accumulation rate is 50%); inhibitory effect on differentiation of adipocytes or on fat accumulation” value is reported as “excellently exerts an inhibitory effect on differentiation of adipocytes or on fat accumulation in adipocytes”.
CC[C@H](C)[C@H]1NC(=O)[C@@H](CO)NC(=O)[C@@H](C)N(C)C(=O)[C@H](C)N(C)C(=O)[C@H](CC(C)C)NC(=O)[C@H](CC(C)C)N(C)C(=O)[C@H](C)N(C)C1=O [1e] was tested, and the “EC50 (compound concentration at which the fat accumulation rate is 50%); inhibitory effect on differentiation of adipocytes or on fat accumulation” value was “excellently exerts an inhibitory effect on differentiation of adipocytes or on fat accumulation in adipocytes”.
